Source: paper PMC7224190, “Pharmacological inhibition of PRMT7 links arginine monomethylation to the cellular stress response” (Nature Communications, 2020)

Assays:
PRMT7 [1] = molecular target: T1, PRMT7 (Homo sapiens, UniProt Q9NVM4); assay: radiometric SPA methyltransferase assay, 3H-SAM and H2B ([…]); type: biochemical
T1 sequence (Q9NVM4 1-692): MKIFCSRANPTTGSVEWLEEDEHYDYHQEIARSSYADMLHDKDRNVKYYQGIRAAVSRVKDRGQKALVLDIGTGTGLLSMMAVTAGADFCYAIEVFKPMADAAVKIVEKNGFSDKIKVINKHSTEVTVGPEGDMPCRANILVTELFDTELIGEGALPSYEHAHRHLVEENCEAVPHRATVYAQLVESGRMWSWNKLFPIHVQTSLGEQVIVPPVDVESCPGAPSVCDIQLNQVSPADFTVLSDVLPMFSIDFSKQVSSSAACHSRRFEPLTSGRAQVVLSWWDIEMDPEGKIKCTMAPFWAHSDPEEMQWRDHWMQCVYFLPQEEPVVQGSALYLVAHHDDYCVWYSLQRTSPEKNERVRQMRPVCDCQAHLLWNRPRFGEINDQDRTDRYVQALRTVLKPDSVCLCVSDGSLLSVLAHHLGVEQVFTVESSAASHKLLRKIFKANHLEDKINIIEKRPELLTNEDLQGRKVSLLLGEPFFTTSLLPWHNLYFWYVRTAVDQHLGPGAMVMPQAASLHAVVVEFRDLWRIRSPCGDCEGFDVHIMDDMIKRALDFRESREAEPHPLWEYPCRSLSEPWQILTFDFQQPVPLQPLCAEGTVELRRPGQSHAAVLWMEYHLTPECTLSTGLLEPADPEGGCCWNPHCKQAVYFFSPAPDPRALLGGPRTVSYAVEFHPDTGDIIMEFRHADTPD

PRMT7 [2] = molecular target: T1, PRMT7; assay: radiometric enzyme kinetics (Km of the methyl donor) with HSPA8 as substrate in presence of ATP; type: biochemical

| Km (PRMT7 [2]) [µM] | SMILES | IC50 (PRMT7 [1]) [nM] |
| --- | --- | --- |
| – | NCCCSC[C@H]1O[C@@H](n2cnc3c(N)ncnc32)[C@H](O)[C@@H]1O [SGC0911] | 1000 |
| 1.6 ± 0.1 | C[S@@+](CC[C@H](N)C(=O)O)C[C@H]1O[C@@H](n2cnc3c(N)ncnc32)[C@H](O)[C@@H]1O [SAM] | – |
